Assay results: paper PMC6015500 (ACS combinatorial science, 2015)
Like-named read-outs stand apart in the source and are kept apart here.

Columns and labels:
Huh7.5.1 cells = test: in vitro; type: cell-based
[1] = tested on: HCV-Luc (recombinant HCV carrying the Renilla luciferase reporter); test: HCV-Luc infection assay; type: cell-based, hepatitis C virus (HCV)
in vitro [2] = type: cell-based; conditions: human
[3] = tested on: HCV replicon cell line of genotype 1b; test: HCV subgenomic replicon assay, genotype 1b; type: cell-based, hepatitis C virus (HCV); conditions: tested at 10 µM; % of DMSO control
VSVpp = type: cell-based
in vitro [4] = type: cell-based; conditions: human; remark: listed apart in the source
[5] = tested on: single-round infectious HCV (HCVsc); test: HCV single-cycle assay; type: cell-based, hepatitis C virus (HCV); conditions: tested at 10 µM; % of DMSO control
[6] = tested on: HCV replicon cell line of genotype 2a; test: HCV subgenomic replicon assay, genotype 2a; type: cell-based, hepatitis C virus (HCV); conditions: tested at 10 µM; % of DMSO control
[7] = tested on: wild-type HCV (HCVcc, genotype 2a); test: HCVcc wild-type infection assay; type: cell-based, hepatitis C virus (HCV); conditions: Huh7.5.1 cells, compounds at 10 µM, 48 h, quantitative real-time PCR
[8] = Double-sink PAMPA permeability; type: in vitro ADME
[9] = tested on: transient genotype 1a subgenomic replicon in Huh7.5.1 cells; test: Transient genotype 1a replicon assay; type: cell-based, hepatitis C virus (HCV); conditions: tested at 10 µM; % of DMSO control
[10] = In vitro microsomal stability; type: in vitro ADME; conditions: CD-1, mouse, liver microsomes
[11] = tested on: HCV pseudoparticle (HCVpp) GT 1b; test: HCVpp entry assay, genotype 1b; type: cell-based, hepatitis C virus (HCV); conditions: tested at 10 µM; % of DMSO control
[12] = tested on: HCV pseudoparticle (HCVpp) GT 1a; test: HCVpp entry assay, genotype 1a; type: cell-based, hepatitis C virus (HCV); conditions: tested at 10 µM; % of DMSO control

Row | SMILES | CC50 (Huh7.5.1 cells) [µM] | inhibitory activity in the HCV-Luc assay [1] | EC50 ([1]; read-out: HCV-Luc EC50, Huh7.5.1 cells, 48 h, Renilla luciferase signal) [µM] | CC50 at 48 h (in vitro [2]) [µM] | HCV Replicon DMSO (%) GT lb [3] [%] | VSVpp DMSO (%) (VSVpp) | CC50 (in vitro [4]) [µM] | EC50 ([1]; Huh-7.5.1, 48 h, read-out: HCV-Luc EC50) [µM] | EC50 ([1]; Huh-7.5.1, read-out: HCV-Luc EC50) [µM] | Selective Index (SI) ([1]; SI = CC50/EC50, Huh7.5.1 cells) | HCVsc DMSO (%) [5] [%] | HCV Replicon DMSO (%) GT 2a [6] [%] | extracellular and intracellular viral RNA levels [7] | Papp ([8]; PAMPA) [×10⁻⁶ cm/s] | permeability ([8]; double-sink PAMPA) | HCV Replicon DMSO (%) Transient la [9] [%] | half-life [10] [min] | HCVpp DMSO (%) GT lb [11] [%] | HCVpp DMSO (%) GT la [12] [%]
1 | COc1ccc(-c2ccc3oc(-c4ccc(OC)cc4)c(C#CCCO)c3c2)cc1 [2{1}] | 70.9 | low-micromolar | 0.98 | – | – | – | – | – | – | – | – | – | – | – | – | – | – | – | –
2 | COc1ccc(-c2oc3ccc(-c4ccc5c(c4)OCO5)nc3c2C#CC2(O)CCCCC2)cc1 [10{21}, 1-((5-(Benzo[d][1,3]dioxol-5-yl)-2-(4-methoxyphenyl)furo-[3,2-b]pyridin-3-yl)ethynyl)cyclohexanol] | – | – | – | > 100 | 82.1 | 121 | 92.3 | 0.184 | 0.18 | >543 | 20.0 | 121 | most promising activity | < 15.4 | moderate permeability | 194 | > 30 | 78.1 | 41.2
